Source: patent publication US6472348B1, “Pyridone derivatives and herbicides” (Kumiai Chemical Industry Co., Ltd., priority 1996, dated 2002)

Assays:
Format in all cases: in vivo
monochoria (Mo) = assay: Test Example 1: herbicidal effects by paddy field soil treatment; details: 100 g of the active ingredient per 10 ares, 21st day after the application, index 0-5 of Table 47;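 also: grade of growth control; 5 = at least 90%; 4 = 70 to 90%; 3 = 50 to 70%; 2 = 30 to 50%; 1 = 10 to 30%; 0 = under 10%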
Procedure, shortened: (§1)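 Flooded paddy-soil pots (3 cm water) sown after puddling/leveling; treatment 100 g a.i./10 ares; greenhouse culture; herbicidal effect rated visually on a scoring scale at 21 d post-application.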

barnyardgrass (Ec) [1] = assay: as above; details: 100 g of the active ingredient per 10 ares, 21st day after the application, index 0-5 of Table 47
Procedure, shortened: as §1

bulrush (Sc) = assay: as above; details: 100 g of the active ingredient per 10 ares, 21st day after the application, index 0-5 of Table 47;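 also: grade of growth control; 5 = at least 90%; 4 = 70 to 90%; 3 = 50 to 70%; 2 = 30 to 50%; 1 = 10 to 30%; 0 = under 10%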
Procedure, shortened: as §1

wheat (Tr) = assay: Test Example 5: crop plant selectivity by upland field soil treatment (wheat), phytotoxicity; parameters: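 grade of crop injury; 5 = at least 90%; 4 = 70 to 90%; 3 = 50 to 70%; 2 = 30 to 50%; 1 = 10 to 30%; 0 = under 10%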; details: 21st day after application
Method: (§2) (Test on Crop Plant Selectivity by Upland Field Soil Treatment)
(§3) In a plastic pot (surface area: 600 cm^2) filled with sand, wheat (Tr), Diaitaria ciliaris (Di), green foxtail (Se), pale smartweed (Po), slender amaranth (Am), common lambsquarters (Ch) and China jute (Ab) were sown and covered with soil. […] The plants were then cultured in a green house, and the evaluation of the herbicidal effects and phytotoxicity was conducted on the 21st day after the application in accordance with the standards as identified in Table 47. Symbol—represents “not tested”.

pale smartweed (Po) [2] = assay: Test Example 5: crop plant selectivity by upland field soil treatment (wheat), herbicidal effects; parameters: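 grade of growth control; 5 = at least 90%; 4 = 70 to 90%; 3 = 50 to 70%; 2 = 30 to 50%; 1 = 10 to 30%; 0 = under 10%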; details: 21st day after application
Method: as §2, §3

slender amaranth (Am) [3] = assay: as above; parameters: scale not given here; details: 21st day after application
Method: as §2, §3

green foxtail (Se) [4] = assay: as above; parameters: scale not given here; details: 21st day after application
Method: as §2, §3

[5] = system: common lambsquarters (Ch); assay: as above; parameters: scale not given here; details: 21st day after application
Method: as §2, §3

China jute (Ab) [6] = assay: as above; parameters: scale not given here; details: 21st day after application
Method: as §2, §3

pale smartweed (Po) [7] = assay: Test Example 2: herbicidal effects by upland field soil treatment; details: 100 g of the active ingredient per 10 ares;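 also: grade of growth control; 5 = at least 90%; 4 = 70 to 90%; 3 = 50 to 70%; 2 = 30 to 50%; 1 = 10 to 30%; 0 = under 10%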
Description: (§4) (Test on Herbicidal Effects by Upland Field Soil Treatment)

slender amaranth (Am) [8] = assay: as above; details: 100 g of the active ingredient per 10 ares
Description: as §4

Digitaria ciliaris (Di) = assay: as above; details: 100 g of the active ingredient per 10 ares;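 also: grade of growth control; 5 = at least 90%; 4 = 70 to 90%; 3 = 50 to 70%; 2 = 30 to 50%; 1 = 10 to 30%; 0 = under 10%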
Description: as §4

[9] = system: common lambsquarters (Ch); assay: as above; details: 100 g of the active ingredient per 10 ares
Description: as §4

barnyardgrass (Ec) [10] = assay: as above; details: 100 g of the active ingredient per 10 ares
Description: as §4

rice flatsedge (Ci) [11] = assay: as above; details: 100 g of the active ingredient per 10 ares
Description: as §4

cotton (Go) = assay: Test Example 4: crop plant selectivity by upland field soil treatment (cotton), phytotoxicity; parameters: scale not given here; details: evaluated 21st day after application
Method: as §2
(§5) In a plastic pot (surface area: 600 cm^2) filled with sand, cotton (Go), Diaitaria ciliaris (Di), green foxtail (Se), pale smartweed (Po), slender amaranth (Am), common lambsquarters (Ch) and China jute (Ab) were sown and covered with soil. […] The plants were then cultured in a green house, and the evaluation of the herbicidal effects and phytotoxicity was conducted on the 21st day after the application in accordance with the standards as identified in Table 47. Symbol—represents “not tested”.

pale smartweed (Po) [12] = assay: Test Example 4: crop plant selectivity by upland field soil treatment (cotton), herbicidal effects; parameters: scale not given here; details: evaluated 21st day after application
Method: as §2, §5

slender amaranth (Am) [13] = assay: as above; parameters: scale not given here; details: evaluated 21st day after application
Method: as §2, §5

green foxtail (Se) [14] = assay: as above; parameters: scale not given here; details: evaluated 21st day after application
Method: as §2, §5

[15] = system: common lambsquarters (Ch); assay: as above; parameters: scale not given here; details: evaluated 21st day after application
Method: as §2, §5

China jute (Ab) [16] = assay: as above; parameters: scale not given here; details: evaluated 21st day after application
Method: as §2, §5

pale smartweed (Po) [17] = assay: Test Example 3: herbicidal effects by upland field foliage treatment; parameters: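 grade of growth control; 5 = at least 90%; 4 = 70 to 90%; 3 = 50 to 70%; 2 = 30 to 50%; 1 = 10 to 30%; 0 = under 10%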
Procedure, shortened: (§6)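 Foliage-applied treatment on weeds pre-grown for 2 weeks in a greenhouse. Pots held sand (surface area 120 cm^2); seeds were sown and covered with soil. Evaluation: graded herbicidal effect 14 days post-application.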

slender amaranth (Am) [18] = assay: as above; parameters: scale not given here
Procedure, shortened: as §6

[19] = system: common lambsquarters (Ch); assay: as above; parameters: scale not given here
Procedure, shortened: as §6

barnyardgrass (Ec) [20] = assay: as above; parameters: scale not given here
Procedure, shortened: as §6

Diaitaria ciliaris (Di) = assay: as above; parameters: scale not given here
Procedure, shortened: as §6

rice flatsedge (Ci) [21] = assay: as above; parameters: scale not given here
Procedure, shortened: as §6

pale smartweed (Po) [22] = assay: Test Example 6: crop plant selectivity by upland field soil treatment (soybean), herbicidal effects; parameters: scale not given here; details: dose 6.3 g ai/10a, 21st day after application
Method: as §2
(§7) In a plastic pot (surface area: 600 cm^2) filled with sand, soybean (Gl), Diaitaria ciliaris (Di), green foxtail (Se), Johnsongrass (So), pale smartweed (Po), slender amaranth (Am), common lambsquarters (Ch) and China jute (Ab) were sown and covered with soil. […] The plants were then cultured in a green house, and the evaluation of the herbicidal effects and phytotoxicity was conducted on the 21st day after the application in accordance with the standards as identified in Table 47. Symbol—represents “not tested”.

slender amaranth (Am) [23] = assay: as above; parameters: scale not given here; details: dose 6.3 g ai/10a, 21st day after application
Method: as §2, §7

green foxtail (Se) [24] = assay: as above; parameters: scale not given here; details: dose 6.3 g ai/10a, 21st day after application
Method: as §2, §7

[25] = system: common lambsquarters (Ch); assay: as above; parameters: scale not given here; details: dose 6.3 g ai/10a, 21st day after application
Method: as §2, §7

China jute (Ab) [26] = assay: as above; parameters: scale not given here; details: dose 6.3 g ai/10a, 21st day after application
Method: as §2, §7

soybean (Gl) = assay: Test Example 6: crop plant selectivity by upland field soil treatment (soybean), phytotoxicity; parameters: scale not given here; details: dose 6.3 g ai/10a, 21st day after application
Method: as §2, §7

[27] = 21st day after the application, index 0-5 of Table 47
[28] = 100 g of the active ingredient per 10 ares, evaluated on the 14th day after treatment
[29] = evaluated on the 21st day after application
[30] = 100 g active ingredient per 10 ares, evaluated 14th day after treatment

Cn1c(C(F)(F)F)ccc(-c2cc(Oc3ncccn3)c(Cl)cc2F)c1=O [Compound No. 1-27]
1: Phytotoxicity Tr (wheat (Tr); dose 1.6 g ai/10a) | Phytotoxicity Go (cotton (Go); dose 1.6 g ai/10 a) | Phytotoxicity Go (cotton (Go); dose 6.3 g ai/10 a)
5: Herbicidal effects Mo (monochoria (Mo)) | Herbicidal effects Ec (barnyardgrass (Ec) [1]) | Herbicidal effects Sc (bulrush (Sc)) | Herbicidal effects Po (pale smartweed (Po) [2]; dose 1.6 g ai/10a) | Herbicidal effects Am (slender amaranth (Am) [3]; dose 1.6 g ai/10a) | Herbicidal effects Se (green foxtail (Se) [4]; dose 1.6 g ai/10a) | Herbicidal effects Ch ([5]; dose 1.6 g ai/10a) | Herbicidal effects Ab (China jute (Ab) [6]; dose 1.6 g ai/10a) | Herbicidal effects Po (pale smartweed (Po) [7]; [27]) | Herbicidal effects Am (slender amaranth (Am) [8]; [27]) | Herbicidal effects Di (Digitaria ciliaris (Di); [27]) | Herbicidal effects Ch [9, 27] | Herbicidal effects Ec (barnyardgrass (Ec) [10]; [27]) | Herbicidal effects Ci (rice flatsedge (Ci) [11]; [27]) | Herbicidal effects Po (pale smartweed (Po) [12]; dose 1.6 g ai/10 a) | Herbicidal effects Po (pale smartweed (Po) [12]; dose 6.3 g ai/10 a) | Herbicidal effects Am (slender amaranth (Am) [13]; dose 1.6 g ai/10 a) | Herbicidal effects Am (slender amaranth (Am) [13]; dose 6.3 g ai/10 a) | Herbicidal effects Se (green foxtail (Se) [14]; dose 1.6 g ai/10 a) | Herbicidal effects Se (green foxtail (Se) [14]; dose 6.3 g ai/10 a) | Herbicidal effects Ch ([15]; dose 1.6 g ai/10 a) | Herbicidal effects Ch ([15]; dose 6.3 g ai/10 a) | Herbicidal effects Ab (China jute (Ab) [16]; dose 1.6 g ai/10 a) | Herbicidal effects Ab (China jute (Ab) [16]; dose 6.3 g ai/10 a) | Herbicidal effects Po (pale smartweed (Po) [17]; [28]) | Herbicidal effects Am (slender amaranth (Am) [18]; [28]) | Herbicidal effects Ch [19, 28] | Herbicidal effects Ec (barnyardgrass (Ec) [20]; [28]) | Herbicidal effects Di (Diaitaria ciliaris (Di); [28]) | Herbicidal effects Ci (rice flatsedge (Ci) [21]; [28])

C#CCN1C(=O)C(C)Oc2cc(Cl)c(-c3ccc(C(F)(F)F)n(C)c3=O)cc21 (stereo not drawn) [Compound No. 2′-1, 3-[7-chloro-2,3-dihyro-2-methyl-4-(2-propynyl)-1,4-benzoxazin-3-on-6-yl]-6-trifluoromethyl-1-methyl-2(1H)-pyridone]
2: Phytotoxicity Tr (wheat (Tr); dose 6.3 g ai/10a)
5: Herbicidal effects Po (pale smartweed (Po) [22]) | Herbicidal effects Am (slender amaranth (Am) [23]) | Herbicidal effects Se (green foxtail (Se) [24]) | Herbicidal effects Ch [25] | Herbicidal effects Ab (China jute (Ab) [26]) | Herbicidal effects Mo (monochoria (Mo)) | Herbicidal effects Ec (barnyardgrass (Ec) [1]) | Herbicidal effects Sc (bulrush (Sc)) | Herbicidal effects Po (pale smartweed (Po) [2]; dose 6.3 g ai/10a) | Herbicidal effects Am (slender amaranth (Am) [3]; dose 6.3 g ai/10a) | Herbicidal effects Se (green foxtail (Se) [4]; dose 6.3 g ai/10a) | Herbicidal effects Ch ([5]; dose 6.3 g ai/10a) | Herbicidal effects Ab (China jute (Ab) [6]; dose 6.3 g ai/10a) | Herbicidal effects Po (pale smartweed (Po) [7]; [29]) | Herbicidal effects Am (slender amaranth (Am) [8]; [29]) | Herbicidal effects Di (Digitaria ciliaris (Di); [29]) | Herbicidal effects Ch [9, 29] | Herbicidal effects Ec (barnyardgrass (Ec) [10]; [29]) | Herbicidal effects Ci (rice flatsedge (Ci) [11]; [29]) | Herbicidal effects Po (pale smartweed (Po) [12]; dose 6.3 g ai/10 a) | Herbicidal effects Am (slender amaranth (Am) [13]; dose 6.3 g ai/10 a) | Herbicidal effects Se (green foxtail (Se) [14]; dose 6.3 g ai/10 a) | Herbicidal effects Ch ([15]; dose 6.3 g ai/10 a) | Herbicidal effects Ab (China jute (Ab) [16]; dose 6.3 g ai/10 a) | Herbicidal effects Po (pale smartweed (Po) [17]; [30]) | Herbicidal effects Am (slender amaranth (Am) [18]; [30]) | Herbicidal effects Ch [19, 30] | Herbicidal effects Ec (barnyardgrass (Ec) [20]; [30]) | Herbicidal effects Di (Diaitaria ciliaris (Di); [30]) | Herbicidal effects Ci (rice flatsedge (Ci) [21]; [30])
1: Phytotoxicity Go (cotton (Go); dose 6.3 g ai/10 a) | Phytotoxicity Gl (soybean (Gl))
